Here are results for 26 compounds from patent US7709471B2, “Compounds” (AstraZeneca AB, priority 2006, dated 2010).

Usually IC50 stands for the point on the concentration scale where inhibition reaches its midpoint.

Structures are written as SMILES. Some results are limits rather than exact numbers.

The test concerns human colon tumour cell line HT29. The test is described as follows: Cellular Assay (phosphohistone H3 Ser10 mitotic marker, HT29). The test is classed as cell-based. Particulars: HT-29, 24 h, HT29 cells, read-out: IC50 (cellular assay, phosphohistone H3).

Protocol: Chromosome condensation in mitosis is accompanied by phosphorylation of histone H3 on serine 10.
After 24 hours, cells were fixed in 3.7% (v/v) formaldehyde then permeabilised and blocked for 10 minutes in 100 μl 0.5% (v/v) Triton X-100, 1% (w/v) bovine serum albumin (BSA) in phosphate buffered saline (PBS). […] The raw assay data were analysed by non-linear regression analysis and used to determine an IC50 value for each compound.

In the case of `CN1CC[C@@H](NC(=O)c2cc(F)c(Nc3ncc4c(n3)N(C3CCCC3)CCC(=O)N4C)cc2F)C1` [Example 334, 4-[(2-cyclopentyl-6-methyl-5-oxo-2,6,9,11-tetrazabicyclo[5.4.0]undeca-7,9,11-trien-10-yl)amino]-2,5-difluoro-N-[(3R)-1-methylpyrrolidin-3-yl]benzamide], the IC50 was less than 0.3 µM.

For `COc1cc(C(=O)NC2CCC(N(C)C)CC2)ccc1Nc1ncc2c(n1)N(C1CCCC1)CC(C)(C)C(=O)N2C` (centres unmarked) [Example 363, 4-[(2-cyclopentyl-4,4,6-trimethyl-5-oxo-2,6,9,11-tetrazabicyclo[5.4.0]undeca-7,9,11-trien-10-yl)amino]-N-(4-dimethylaminocyclohexyl)-3-methoxy-benzamide], the IC50 was less than 0.3 µM.

Regarding `CN1CCC(NC(=O)c2cc(Cl)c(Nc3ncc4c(n3)N(C3CCCC3)CCC(=O)N4C)c(Cl)c2F)CC1` [Example 330, 3,5-dichloro-4-[(2-cyclopentyl-6-methyl-5-oxo-2,6,9,11-tetrazabicyclo[5.4.0]undeca-7,9,11-trien-10-yl)amino]-2-fluoro-N-(1-methyl-4-piperidyl)benzamide], the IC50 was less than 1 µM.

As for `COc1cc(C(=O)NC2CCN(CC(C)C)CC2)ccc1Nc1ncc2c(n1)N(C1CCCC1)CCC(=O)N2C` [Example 340, 4-[(2-cyclopentyl-6-methyl-5-oxo-2,6,9,11-tetrazabicyclo[5.4.0]undeca-7,9,11-trien-10-yl)amino]-3-methoxy-N-[1-(2-methylpropyl)-4-piperidyl]benzamide], the IC50 was less than 0.3 µM.

Regarding `CN(C)CCCNC(=O)c1ccc(Nc2ncc3c(n2)N(C2CCCC2)CC(C)(C)C(=O)N3C)c(Cl)c1` [Example 362, 3-chloro-4-[(2-cyclopentyl-4,4,6-trimethyl-5-oxo-2,6,9,11-tetrazabicyclo[5.4.0]undeca-7,9,11-trien-10-yl)amino]-N-(3-dimethylaminopropyl)benzamide], the IC50 was less than 0.3 µM.

Turning to `COc1cc(C(=O)NCCCN(C)C)ccc1Nc1ncc2c(n1)N(C1CCCC1)CC(C)(C)C(=O)N2C` [Example 357, 4-[(2-cyclopentyl-4,4,6-trimethyl-5-oxo-2,6,9,11-tetrazabicyclo[5.4.0]undeca-7,9,11-trien-10-yl)amino]-N-(3-dimethylaminopropyl)-3-methoxy-benzamide], the IC50 was less than 0.3 µM.

On to `CCN1CCC(NC(=O)c2ccc(Nc3ncc4c(n3)N(C3CCCC3)CC3(CC3)C(=O)N4C)c(F)c2)CC1` [Example 406, 4-(9′-cyclopentyl-5′-methyl-6′-oxo-5′,6′,8′,9′-tetrahydrospiro[cyclopropane-1,7′-pyrimido[5,4-b][1,4]diazepine]-2′-ylamino)-N-(1-ethyl-4-piperidyl)-3-fluoro-benzamide], for which the IC50 is less than 0.3 µM.

`COc1cc(C(=O)NC2CCN(C)CC2)c(F)cc1Nc1ncc2c(n1)N(C1CCCC1)CC(C)(C)C(=O)N2C` [Example 361, 4-[(2-cyclopentyl-4,4,6-trimethyl-5-oxo-2,6,9,11-tetrazabicyclo[5.4.0]undeca-7,9,11-trien-10-yl)amino]-2-fluoro-5-methoxy-N-(1-methyl-4-piperidyl)benzamide]: the IC50 was less than 0.3 µM.

Consider `COc1cc(C(=O)NCC2(CN3CCCC3)CC2)c(F)cc1Nc1ncc2c(n1)N(C1CCCCC1)CCC(=O)N2C` [Example 419, 4-[(2-cyclohexyl-6-methyl-5-oxo-2,6,9,11-tetrazabicyclo[5.4.0]undeca-7,9,11-trien-10-yl)amino]-2-fluoro-5-methoxy-N-[[1-(pyrrolidin-1-ylmethyl)cyclopropyl]methyl]benzamide], for which the IC50 is less than 1 µM.

Consider `CCN1CCC(NC(=O)c2cc(F)c(Nc3ncc4c(n3)N(C3CCCCC3)CCC(=O)N4C)cc2F)CC1` [Example 415, 4-[(2-cyclohexyl-6-methyl-5-oxo-2,6,9,11-tetrazabicyclo[5.4.0]undeca-7,9,11-trien-10-yl)amino]-N-(1-ethyl-4-piperidyl)-2,5-difluoro-benzamide], for which the IC50 was less than 0.3 µM.

Take `CN1C(=O)CCN(C2CCCC2)c2nc(Nc3cccc(C(N)=O)c3)ncc21` [Example 167, 3-[(6-cyclopentyl-2-methyl-3-oxo-2,6,8,10-tetrazabicyclo[5.4.0]undeca-8,10,12-trien-9-yl)amino]benzamide]: the IC50 was less than 30 µM.

In the case of `CC(C)N1CC(C)(C)C(=O)N(C)c2cnc(Nc3cc(F)c(C(=O)NC4CCC(N(C)C)CC4)cc3Cl)nc21` (centres unmarked) [Example 291, 5-chloro-N-(4-dimethylaminocyclohexyl)-2-fluoro-4-[(4,4,6-trimethyl-5-oxo-2-propan-2-yl-2,6,9,11-tetrazabicyclo[5.4.0]undeca-7,9,11-trien-10-yl)amino]benzamide], the IC50 was less than 0.3 µM.

Regarding `C#CCN1CCC(=O)N(C)c2cnc(Nc3ccc(C(=O)NC4CCN(C)CC4)cc3OC)nc21` [Example 271, 3-methoxy-4-[(6-methyl-5-oxo-2-prop-2-ynyl-2,6,9,11-tetrazabicyclo[5.4.0]undeca-7,9,11-trien-10-yl)amino]-N-(1-methyl-4-piperidyl)benzamide], the IC50 is less than 30 µM.

For `COc1cc(C(=O)NC2CCCCN(C)C2)ccc1Nc1ncc2c(n1)N(C1CCCC1)CCC(=O)N2C` (centres unmarked) [Example 453, 4-[(2-cyclopentyl-6-methyl-5-oxo-2,6,9,11-tetrazabicyclo[5.4.0]undeca-7,9,11-trien-10-yl)amino]-3-methoxy-N-(1-methylazepan-3-yl)benzamide], the IC50 is less than 0.3 µM.

On to `CN(C)CC(C)(C)CNC(=O)c1ccc(Nc2ncc3c(n2)N(C2CCCC2)CC2(CC2)C(=O)N3C)c(Cl)c1` [Example 392, 3-chloro-4-(9′-cyclopentyl-5′-methyl-6′-oxo-5′,6′,8′,9′-tetrahydrospiro[cyclopropane-1,7′-pyrimido[5,4-b][1,4]diazepine]-2′-ylamino)-N-(3-dimethylamino-2,2-dimethyl-propyl)benzamide], for which the IC50 is less than 0.3 µM.

Regarding `CN1C(=O)C2(CC2)CN(C2CCCC2)c2nc(Nc3ccc(C(=O)NCCN4CCCC4)cc3Cl)ncc21` [Example 391, 3-chloro-4-(9′-cyclopentyl-5′-methyl-6′-oxo-5′,6′,8′,9′-tetrahydrospiro[cyclopropane-1,7′-pyrimido[5,4-b][1,4]diazepine]-2′-ylamino)-N-(2-pyrrolidin-1-ylethyl)benzamide], the IC50 is less than 0.3 µM.

For the compound `CCN1CCC(NC(=O)c2ccc(Nc3ncc4c(n3)N(C3CCCC3)CC(C)(C)C(=O)N4C)c(OC)c2)CC1` [Example 350, 4-[(2-cyclopentyl-4,4,6-trimethyl-5-oxo-2,6,9,11-tetrazabicyclo[5.4.0]undeca-7,9,11-trien-10-yl)amino]-N-(1-ethyl-4-piperidyl)-3-methoxy-benzamide], the IC50 is less than 0.3 µM.

Turning to `CN1C(=O)C2(CC2)CN(C2CCCCC2)c2nc(Nc3cc(F)c(C(=O)NC4CCC(N(C)C)CC4)cc3Cl)ncc21` (centres unmarked) [Example 437, 5-chloro-4-(9′-cyclohexyl-5′-methyl-6′-oxo-5′,6′,8′,9′-tetrahydrospiro[cyclopropane-1,7′-pyrimido[5,4-b][1,4]diazepine]-2′-ylamino)-N-(4-dimethylaminocyclohexyl)-2-fluoro-benzamide], the IC50 is less than 0.3 µM.

In the case of `COc1cc(C(=O)NCC(C)(C)CN2CCCC2)ccc1Nc1ncc2c(n1)N(C1CCCC1)CC(C)(C)C(=O)N2C` [Example 368, 4-[(2-cyclopentyl-4,4,6-trimethyl-5-oxo-2,6,9,11-tetrazabicyclo[5.4.0]undeca-7,9,11-trien-10-yl)amino]-N-(2,2-dimethyl-3-pyrrolidin-1-yl-propyl)-3-methoxy-benzamide], the IC50 is less than 0.3 µM.

Regarding `COc1cc(C(=O)O)ccc1Nc1ncc2c(n1)N(C1CCCC1)CC(C)(C)C(=O)N2C` [Example 242, 4-[(2-cyclopentyl-4,4,6-trimethyl-5-oxo-2,6,9,11-tetrazabicyclo[5.4.0]undeca-7,9,11-trien-10-yl)amino]-3-methoxy-benzoic acid], the IC50 is less than 1 µM.

Turning to `CCC1(CC)CN(C2CCCC2)c2nc(Nc3ccc(C(=O)NCC(C)(C)CN4CCCC4)cc3OC)ncc2N(C)C1=O` [Example 376, 4-[(2-cyclopentyl-4,4-diethyl-6-methyl-5-oxo-2,6,9,11-tetrazabicyclo[5.4.0]undeca-7,9,11-trien-10-yl)amino]-N-(2,2-dimethyl-3-pyrrolidin-1-yl-propyl)-3-methoxy-benzamide], the IC50 was less than 0.3 µM.

On to `COc1cc(C(=O)N[C@@H]2CCN(C)C2)c(F)cc1Nc1ncc2c(n1)N(C1CCCCC1)CCC(=O)N2C` [Example 420, 4-[(2-cyclohexyl-6-methyl-5-oxo-2,6,9,11-tetrazabicyclo[5.4.0]undeca-7,9,11-trien-10-yl)amino]-2-fluoro-5-methoxy-N-[(3R)-1-methylpyrrolidin-3-yl]benzamide], for which the concentration for half-maximal inhibition (IC50) is less than 0.3 µM.

On to `CCOc1cc(C(=O)NC2CCC(N(C)C)CC2)ccc1Nc1ncc2c(n1)N(C(C)C)CC(C)(C)C(=O)N2C` (centres unmarked) [Example 294, N-(4-dimethylaminocyclohexyl)-3-ethoxy-4-[(4,4,6-trimethyl-5-oxo-2-propan-2-yl-2,6,9,11-tetrazabicyclo[5.4.0]undeca-7,9,11-trien-10-yl)amino]benzamide], for which the IC50 is less than 1 µM.

Regarding `COc1cc(C(=O)N[C@@H]2CCN(C)C2)ccc1Nc1ncc2c(n1)N(C(C)C)CC(C)(C)C(=O)N2C` [Example 299, 3-methoxy-N-[(3R)-1-methylpyrrolidin-3-yl]-4-[(4,4,6-trimethyl-5-oxo-2-propan-2-yl-2,6,9,11-tetrazabicyclo[5.4.0]undeca-7,9,11-trien-10-yl)amino]benzamide], the IC50 was less than 0.3 µM.

For the compound `CCN1CCC(NC(=O)c2cc(OC)c(Nc3ncc4c(n3)N(C3CCCCC3)CC3(CC3)C(=O)N4C)cc2F)CC1` [Example 443, 4-(9′-cyclohexyl-5′-methyl-6′-oxo-5′,6′,8′,9′-tetrahydrospiro[cyclopropane-1,7′-pyrimido[5,4-b][1,4]diazepine]-2′-ylamino)-N-(1-ethyl-4-piperidyl)-2-fluoro-5-methoxy-benzamide], the IC50 is less than 0.3 µM.

For the compound `CCN1CCC(NC(=O)c2cc(OC)c(Nc3ncc4c(n3)N(C3CCCC3)CC3(CC3)C(=O)N4C)cc2F)CC1` [Example 407, 4-(9′-cyclopentyl-5′-methyl-6′-oxo-5′,6′,8′,9′-tetrahydrospiro[cyclopropane-1,7′-pyrimido[5,4-b][1,4]diazepine]-2′-ylamino)-N-(1-ethyl-4-piperidyl)-2-fluoro-5-methoxy-benzamide], the half-maximal inhibitory concentration (IC50) is less than 0.3 µM.
